According to patent publication US7186756B2, “Steroid derivatives and use thereof as medicaments” (Inovat, priority 2003, dated 2007):

System: bone cells (line UMR 106 or G 292)
Assay: fixation of calcium in the extra cellular matrix of cultured bone cells (atomic spectrophotometry)
Type: cell-based
Conditions: for amount of fixed calcium in the extra cellular matrix of the osteoblasts: cells treated with 10 µg of calcium inhibitor, same conditions
Procedure: In the same conditions the cells are treated with 10 µg Verapamil or any other inhibitor of the calcium such as Cinchonine or Diltiazem.

Row | Molecule | fixed calcium (10 ng of Maltadiolone, in comparison with the untreated control cells, line UMR 106 or G 292) | fixative activity on the calcium (cells treated with both 1 μg IL-1 and 10 μg Maltadiolone) | concentration from which recovery of the fixation of calcium on the extra cellular matrix may be detected (same conditions as previously (IL-1 treated cells)) [ng/mL] | amount of fixed calcium in the extra cellular matrix of the osteoblasts
1 | 2-oxo 3-hydroxy 25-ethylidene A-nor cholest-3-ene [Maltadiolone] | increase in the fixed calcium | restore a fixative activity on the calcium, equivalent to that of cells untreated with a calcium inhibitor | ≥ 10 | –
2 | C=C[C@H]1C[N@@]2CC[C@H]1C[C@@H]2[C@@H](O)c1ccnc2ccccc12 [Cinchonine] | – | – | – | equivalent to that of the cells treated with interleukin
3 | COc1ccc([C@@H]2Sc3ccccc3N(CCN(C)C)C(=O)[C@@H]2OC(C)=O)cc1 [Diltiazem] | – | – | – | equivalent to that of the cells treated with interleukin
4 | COc1ccc(CCN(C)CCCC(C#N)(c2ccc(OC)c(OC)c2)C(C)C)cc1OC (stereo not drawn) [Verapamil] | – | – | – | equivalent to that of the cells treated with interleukin
